According to patent US6309630A, “Non-steroidal anti-inflammatory ophthalmic suspensions” (Insite Vision Incorporated, priority 1994, dated 2001):

Test: Percent Diclofenac Sodium in Suspension (dependence on concentration and pH)
Assay type: physicochemical
Settings: below a pH of about 6.8; formulation containing 1% diclofenac sodium
Source text: The solubility of non-steroidal anti-inflammatory agents is pH dependent, i.e., normally the higher the pH, the higher the solubility of the drug in the formulation. […] Formulating the composition as a suspension rather than as a solution inhibits immediate contact between the drug and tissues of the eye and in that way reduces the stinging and burning sensation experienced when a solution of such drugs places all of the drug in immediate contact with the ocular tissues.
Thus, by providing at least some of the diclofenac in suspension, via pH control, lower transient burning and stinging would be observed when administered to patients.

Structure (SMILES): O=C(O)Cc1ccccc1Nc1c(Cl)cccc1Cl [Diclofenac Sodium, sodium ortho-(2,6-dichlorophenyl)aminophenylacetate acid]
- diclofenac in suspension (in words): virtually all of the diclofenac in suspension
